Results: patent US20230000813A1, “COMPOUND FOR THE TREATMENT OF BOVINE OR SWINE RESPIRATORY DISEASE” (Intervet Inc., priority 2016, published 2023)
Values joined by “and” are separate entries in the source; they are usually repeats but may differ in a detail not shown here. Equal entries are not always repeated.

Tests used:
[1] = tested on: M. haemolytica; assay: Mannheimia haemolytica cattle lung infection model, efficacy (Example 10); type: in vivo, cattle calves; details: 3 calves, 10 mg/kg
Protocol: Unless otherwise described the study was conducted as described in Clinical Example 8
(§1) Calves were infected via intratracheal instillation of appr. 300 mL of M. haemolytica PBS suspension containing approximately 4×10^9 CFU M. haemolytica in late log phase on Day 0.
One hour later three animals each were treated with 10 mg/kg of Compound 231(referred to as C. 231) (80 mg/mL in 10% Poloxamer 188), or 10 mg/kg or 5 mg/kg Compound 329 (referred to as C. 329) (150 mg/mL in 35% Cavitron).
(§2) The following clinical findings were recorded: The general behavior scores of the animals before (DO am) and after infection with M. haemolytica in the different treated and control groups are indicated in FIG. 8-1: 0=normal; 1=slightly depressive, 2=moderately depressive, 3=highly depressive, 4=recumbency.
The following pathomorphological findings after section on Day 2 were recorded: After measuring the body weight and the lung weight the Lung body mass ratio was calculated as shown in FIG. 8-2. A healthy animal has a lung body mass ration around 1.7 or lower. The area percentage of lung consolidations compared to the total lung tissue and the lung score determined that is a combined score of such percentage of lung consoldiations and the grade. For the “grade” the degree of lung consolidation score was graded from 0 to 3 for each of eight lung lobes: 0 no visible changes, 1 low graded colour changes or induration, 2 medium graded induration, 3 high graded induration, hepatisation, necrosis.
The geometrical means (CFU/g tissue) of bacteriological re-isolations of Mannheimia haemolytica from lung tissue are illustrated in FIG. 8-4.

[2] = tested on: M. haemolytica M7/2; assay: Mannheimia haemolytica cattle lung infection model, efficacy (Example 9); type: in vivo, cattle calves; details: 3 calves, SC 10 mg/kg BW
Protocol: Unless otherwise described the study was conducted as described in Example 8.
as §1
as §2, with “7-1: 0 =normal;” for “8-1: 0=normal;”, “[…] recumbency.” for “4=recumbency.”
The following pathomorphological findings after section on Day 2 were recorded: After measuring the body weight and the lung weight the Lung body mass ratio was calculated as shown in FIG. 7-2. A healthy animal has a lung body mass ration around 1.7 or lower. The area percentage of lung consolidations compared to the total lung tissue and the lung score determined that is a combined score of such percentage of lung consoldiations and the grade. For the “grade” the degree of lung consolidation score was graded from 0 to 3 for each of eight lung lobes: 0 no visible changes, 1 low graded colour changes or induration, 2 medium graded induration, 3 high graded induration, hepatisation, necrosis.
The geometrical means (CFU/g tissue) of bacteriological re-isolations of Mannheimia haemolytica from lung tissue are illustrated in FIG. 7-4.

[3] = tested on: M. haemolytica M7/2, serotype A:1, ID 6357; assay: Mannheimia haemolytica cattle lung infection model, efficacy (Example 8); type: in vivo, Holstein black pied cattle calves; parameters: key to General behavior, score: 0 = normal; 1 = slightly depressive; 2 = moderately depressive; 3 = highly depressive; 4 = recumbency; key to Re-isolation of bacteria, Left Bronchial swab / Re-isolation of bacteria, Right Bronchial swab: − no bacterial growth; + low; ++ medium; +++ high amount of bacterial growth; details: for Food consumption, cumulated for all animals in the group: 3 calves; for Lung score (including grade and percent Lung consolidation): grade of consolidation 0 to 3
Protocol: 15 male Holstein black pied cattle calves of ca. 4 months age were randomly assigned to the study groups ensuring an equal distribution of body weight. The animal weight was approximately 98-133.5 kg on D-1.
Calves were infected on Day 0 via intratracheal instillation of approximately 300 mL of a M. haemolytica PBS suspension containing approximately 3×10^9 CFU M. haemolytica in late log phase.
Three animals each were treated one hour after infection by subcutaneous (SC) administration of Compound 329 in an aqueous 30% (w/v) Captisol® solution for injection at a dose of 10 mg/kg BW.
The respective dose volume was injected on the sides of the thoracic wall. Injection volumes exceeding 10 mL were divided into one portion of 10 mL administered to the left side and the remaining rest administered at different injection sites on the other side. Animals in one control group were treated with a commercially available Enrofloxacin solution (Baytril ® 10%, Bayer Animal Health) at the recommended dose of 10 mg/kg BW. The second control group was treated with the galenic diluent (30% (w/v) Captisol®, dissolved in water) as placebo.
Food consumption was measured. Single individual blood samples were collected from the 12 animals at the following time points: D-1 (predose), 30 minutes, 2, 4, 6, 24 h and at D2 (ca. 45 h) after administration. After the day 2 blood sampling, the infected cattle were slaughtered. The lungs were weighted. Lung states and lung scores were observed morphologically.
At necropsy from animals treated with test items or the positive control, samples of epithelial lining fluid (ELF), lung tissue, and additionally tissue of liver and kidney were collected. From each lung two bacteriological swaps were taken from the left and right bronchus.
From each lung two tissue samples were collected by clipping from at least two locations, one from morphologically unchanged tissue, one from the edge of pathomorphologically changed areas.

[4] = D 0 am, after infection and treatment
[5] = section on day 2, infected calves, SC 10 mg/kg, individual animals and mean, 10 mg/kg
[6] = section on day 2, infected calves, SC 10 mg/kg, individual animals and mean, 10 mg/kg, mean
[7] = section on day 2, infected calves, SC single 10 mg/kg, individual animals

Q: What does the source list for CCN1CCN(c2cc3c(cc2F)c(=O)c(C(=O)O)cn3C2CC2)CC1 [Enrofloxacin, reference compound]?
A: Food consumption, cumulated for all animals in the group [1, 4]: 1667 g; Food consumption, cumulated for all animals in the group ([1]; D 0 pm): 4800 g; Food consumption, cumulated for all animals in the group ([1]; D +1 am): 4800 g; Food consumption, cumulated for all animals in the group ([1]; D +1 pm): 4800 g; Food consumption, cumulated for all animals in the group ([1]; D −1 (before infection)): 4800 g; Food consumption, cumulated for all animals in the group [2, 4]: 4027 g; Food consumption, cumulated for all animals in the group ([2]; D 0 pm): 4800 g; Food consumption, cumulated for all animals in the group ([2]; D +1 am): 4737 g; Food consumption, cumulated for all animals in the group ([2]; D +1 pm): 4800 g; Food consumption, cumulated for all animals in the group ([2]; D −1 (before infection)): 4800 g; General behavior, score ([3]; D 0 am (before infection), calves, SC 10 mg/kg, individual animals and mean, 10 mg/kg): 0; General behavior, score ([3]; D 0 am (before infection), calves, SC 10 mg/kg, individual animals and mean, 10 mg/kg, mean): 0.0 score; Food consumption, cumulated for all animals in the group ([3]; D 0 am, after infection and treatment, SC 10 mg/kg): 660 g; Food consumption, cumulated for all animals in the group ([3]; D 0 pm, SC 10 mg/kg): 4800 g; General behavior, score ([3]; D 0 pm, calves infected with M. haemolytica, SC 10 mg/kg 1 h after infection, individual animals and mean, 10 mg/kg): 0; General behavior, score ([3]; D 0 pm, calves infected with M. haemolytica, SC 10 mg/kg 1 h after infection, individual animals and mean, 10 mg/kg, mean): 0.0 score; General behavior, score ([3]; D 1 am, calves infected with M. haemolytica, SC 10 mg/kg 1 h after infection, individual animals and mean, 10 mg/kg): 0; General behavior, score ([3]; D 1 am, calves infected with M. haemolytica, SC 10 mg/kg 1 h after infection, individual animals and mean, 10 mg/kg, mean): 0.0 score; General behavior, score ([3]; D 1 pm, calves infected with M. haemolytica, SC 10 mg/kg 1 h after infection, individual animals and mean, 10 mg/kg): 0; General behavior, score ([3]; D 1 pm, calves infected with M. haemolytica, SC 10 mg/kg 1 h after infection, individual animals and mean, 10 mg/kg, mean): 0.0 score; General behavior, score ([3]; D 2 am, calves infected with M. haemolytica, SC 10 mg/kg 1 h after infection, individual animals and mean, 10 mg/kg): 0; General behavior, score ([3]; D 2 am, calves infected with M. haemolytica, SC 10 mg/kg 1 h after infection, individual animals and mean, 10 mg/kg, mean): 0.0 score; Food consumption, cumulated for all animals in the group ([3]; D +1 am, SC 10 mg/kg): 4800 g; Food consumption, cumulated for all animals in the group ([3]; D +1 pm, SC 10 mg/kg): 4800 g; Food consumption, cumulated for all animals in the group ([3]; D −1 (before infection), SC 10 mg/kg): 4800 g; mean bacterial re-isolation ([3]; infected calves, SC 10 mg/kg, in words): Very low; Lung score (including grade and percent Lung consolidation) [3, 5]: 21.2 and 16.9 and 20.4; Lung score (including grade and percent Lung consolidation) [3, 6]: 19.5; Lung consolidations [3, 5]: 13.0% and 10.8% and 15.3%; Lung weight [3, 5]: 1334 g and 1765 g and 1429 g; Lung/body weight ratio [3, 5]: ~1.3% and 1.31% and 1.34% and 1.21% and 1.29%; Lung consolidations [3, 6]: 13.0%; Lung weight [3, 6]: 1509 g; Re-isolation of bacteria, Left Bronchial swab [3, 7]: −; Re-isolation of bacteria, Right Bronchial swab [3, 7]: −
